{"source": "paper PMC6407917", "about": "“Identification of GSK3186899/DDD853651 as a Preclinical Development Candidate for the Treatment of Visceral Leishmaniasis” (Journal of Medicinal Chemistry, 2018)", "assay_in_all_cases": "biochemical", "design_in_all_cases": "species or system HEK293/K-562/placenta mixed human extract; Kinobeads chemoproteomic competition binding, quantified by TMT LC-MS/MS, dose response up to 20 uM", "key": {"JAK3": {"molecular_target": "JAK3 (Homo sapiens, UniProt P52333)", "sequence (P52333 whole entry)": "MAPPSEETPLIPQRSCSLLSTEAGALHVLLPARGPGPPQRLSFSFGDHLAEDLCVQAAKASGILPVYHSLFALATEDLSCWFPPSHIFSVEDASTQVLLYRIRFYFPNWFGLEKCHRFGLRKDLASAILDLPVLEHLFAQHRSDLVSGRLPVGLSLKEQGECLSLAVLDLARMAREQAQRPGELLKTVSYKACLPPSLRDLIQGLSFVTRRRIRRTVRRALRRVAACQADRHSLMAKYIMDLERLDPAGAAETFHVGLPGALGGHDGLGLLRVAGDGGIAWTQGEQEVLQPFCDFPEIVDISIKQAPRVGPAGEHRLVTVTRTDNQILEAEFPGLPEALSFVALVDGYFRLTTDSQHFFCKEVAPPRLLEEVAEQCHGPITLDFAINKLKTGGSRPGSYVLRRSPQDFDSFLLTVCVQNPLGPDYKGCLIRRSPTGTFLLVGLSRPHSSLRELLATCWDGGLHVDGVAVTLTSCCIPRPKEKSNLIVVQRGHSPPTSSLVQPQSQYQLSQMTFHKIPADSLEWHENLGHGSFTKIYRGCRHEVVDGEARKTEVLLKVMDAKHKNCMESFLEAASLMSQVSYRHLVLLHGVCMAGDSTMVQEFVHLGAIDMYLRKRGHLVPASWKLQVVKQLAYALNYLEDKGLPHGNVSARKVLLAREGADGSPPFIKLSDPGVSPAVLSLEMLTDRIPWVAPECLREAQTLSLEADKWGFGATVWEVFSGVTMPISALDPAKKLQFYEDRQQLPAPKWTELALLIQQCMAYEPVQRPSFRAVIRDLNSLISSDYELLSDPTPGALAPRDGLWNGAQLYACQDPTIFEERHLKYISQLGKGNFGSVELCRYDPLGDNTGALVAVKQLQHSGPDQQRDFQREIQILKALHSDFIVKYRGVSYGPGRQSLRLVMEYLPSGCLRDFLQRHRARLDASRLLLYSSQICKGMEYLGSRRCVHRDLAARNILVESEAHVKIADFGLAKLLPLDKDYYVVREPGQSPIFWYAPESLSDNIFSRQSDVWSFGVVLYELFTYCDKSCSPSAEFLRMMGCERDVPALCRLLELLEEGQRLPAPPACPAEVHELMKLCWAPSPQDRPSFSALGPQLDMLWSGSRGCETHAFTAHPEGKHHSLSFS"}, "ADK": {"molecular_target": "ADK (Homo sapiens, UniProt P55263)"}, "CDC42BPB": {"molecular_target": "CDC42BPB (Homo sapiens, UniProt Q9Y5S2)"}, "LATS1": {"molecular_target": "LATS1 (Homo sapiens, UniProt O95835)"}, "PTK2B": {"molecular_target": "PTK2B (Homo sapiens, UniProt Q14289)"}, "PHKA2": {"molecular_target": "PHKA2 (Homo sapiens, UniProt P46019)"}, "ERN1": {"molecular_target": "ERN1 (Homo sapiens, UniProt O75460)", "sequence (O75460 whole entry)": "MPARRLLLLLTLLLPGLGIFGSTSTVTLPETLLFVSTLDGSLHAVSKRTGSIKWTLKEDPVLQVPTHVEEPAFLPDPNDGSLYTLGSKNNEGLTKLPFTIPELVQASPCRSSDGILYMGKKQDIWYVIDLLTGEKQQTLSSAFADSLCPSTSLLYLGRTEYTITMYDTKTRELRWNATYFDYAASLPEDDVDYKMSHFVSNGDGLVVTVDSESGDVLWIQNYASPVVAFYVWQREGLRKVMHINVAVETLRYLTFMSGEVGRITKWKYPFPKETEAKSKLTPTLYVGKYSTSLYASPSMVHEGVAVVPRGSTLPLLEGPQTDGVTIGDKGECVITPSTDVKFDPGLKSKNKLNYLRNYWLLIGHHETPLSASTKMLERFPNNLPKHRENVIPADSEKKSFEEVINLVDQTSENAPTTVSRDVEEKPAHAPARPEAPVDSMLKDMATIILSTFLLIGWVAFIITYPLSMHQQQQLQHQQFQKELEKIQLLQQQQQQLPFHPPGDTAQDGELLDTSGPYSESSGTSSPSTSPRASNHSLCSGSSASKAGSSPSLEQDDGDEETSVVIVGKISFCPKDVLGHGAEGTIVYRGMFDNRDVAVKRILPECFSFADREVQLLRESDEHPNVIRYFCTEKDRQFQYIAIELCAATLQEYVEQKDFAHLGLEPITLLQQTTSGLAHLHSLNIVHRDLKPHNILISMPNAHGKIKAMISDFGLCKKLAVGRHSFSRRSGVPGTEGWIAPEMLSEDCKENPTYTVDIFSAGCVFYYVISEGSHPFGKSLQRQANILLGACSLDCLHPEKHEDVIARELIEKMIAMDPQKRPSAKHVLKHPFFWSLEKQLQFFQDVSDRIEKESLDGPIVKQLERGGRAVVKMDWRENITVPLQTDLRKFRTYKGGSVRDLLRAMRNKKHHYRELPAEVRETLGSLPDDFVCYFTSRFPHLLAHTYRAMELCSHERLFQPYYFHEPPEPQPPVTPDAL"}, "PLK4": {"molecular_target": "PLK4 (Homo sapiens, UniProt O00444)"}, "LCK": {"molecular_target": "LCK (Homo sapiens, UniProt P06239)"}, "TYRO3": {"molecular_target": "TYRO3 (Homo sapiens, UniProt Q06418)", "sequence (Q06418 whole entry)": "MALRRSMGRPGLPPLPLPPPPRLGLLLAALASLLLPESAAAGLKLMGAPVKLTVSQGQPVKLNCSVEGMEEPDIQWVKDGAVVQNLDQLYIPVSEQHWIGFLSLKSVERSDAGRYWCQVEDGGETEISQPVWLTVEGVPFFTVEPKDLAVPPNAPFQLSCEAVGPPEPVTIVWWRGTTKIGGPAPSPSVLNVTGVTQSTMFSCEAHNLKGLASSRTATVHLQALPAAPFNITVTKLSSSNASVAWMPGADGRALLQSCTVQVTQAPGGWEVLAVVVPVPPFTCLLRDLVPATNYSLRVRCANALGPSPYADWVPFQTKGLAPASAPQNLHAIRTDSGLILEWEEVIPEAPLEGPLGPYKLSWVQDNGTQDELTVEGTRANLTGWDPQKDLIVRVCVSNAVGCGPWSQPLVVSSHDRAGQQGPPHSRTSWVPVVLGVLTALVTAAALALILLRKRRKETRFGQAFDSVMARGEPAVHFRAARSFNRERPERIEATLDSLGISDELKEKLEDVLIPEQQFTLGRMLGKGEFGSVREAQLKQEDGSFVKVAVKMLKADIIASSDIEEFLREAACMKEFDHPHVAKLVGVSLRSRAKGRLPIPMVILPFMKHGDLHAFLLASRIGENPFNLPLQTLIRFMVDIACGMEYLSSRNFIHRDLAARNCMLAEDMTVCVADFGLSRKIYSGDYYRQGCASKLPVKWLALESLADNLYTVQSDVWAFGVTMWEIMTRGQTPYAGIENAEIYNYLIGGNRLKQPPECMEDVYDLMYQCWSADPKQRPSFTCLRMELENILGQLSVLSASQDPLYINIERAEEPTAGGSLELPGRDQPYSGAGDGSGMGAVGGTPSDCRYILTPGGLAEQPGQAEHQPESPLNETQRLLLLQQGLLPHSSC"}, "OXSR1": {"molecular_target": "OXSR1 (Homo sapiens, UniProt O95747)"}, "MAP3K1": {"molecular_target": "MAP3K1 (Homo sapiens, UniProt Q13233)", "sequence (Q13233 whole entry)": "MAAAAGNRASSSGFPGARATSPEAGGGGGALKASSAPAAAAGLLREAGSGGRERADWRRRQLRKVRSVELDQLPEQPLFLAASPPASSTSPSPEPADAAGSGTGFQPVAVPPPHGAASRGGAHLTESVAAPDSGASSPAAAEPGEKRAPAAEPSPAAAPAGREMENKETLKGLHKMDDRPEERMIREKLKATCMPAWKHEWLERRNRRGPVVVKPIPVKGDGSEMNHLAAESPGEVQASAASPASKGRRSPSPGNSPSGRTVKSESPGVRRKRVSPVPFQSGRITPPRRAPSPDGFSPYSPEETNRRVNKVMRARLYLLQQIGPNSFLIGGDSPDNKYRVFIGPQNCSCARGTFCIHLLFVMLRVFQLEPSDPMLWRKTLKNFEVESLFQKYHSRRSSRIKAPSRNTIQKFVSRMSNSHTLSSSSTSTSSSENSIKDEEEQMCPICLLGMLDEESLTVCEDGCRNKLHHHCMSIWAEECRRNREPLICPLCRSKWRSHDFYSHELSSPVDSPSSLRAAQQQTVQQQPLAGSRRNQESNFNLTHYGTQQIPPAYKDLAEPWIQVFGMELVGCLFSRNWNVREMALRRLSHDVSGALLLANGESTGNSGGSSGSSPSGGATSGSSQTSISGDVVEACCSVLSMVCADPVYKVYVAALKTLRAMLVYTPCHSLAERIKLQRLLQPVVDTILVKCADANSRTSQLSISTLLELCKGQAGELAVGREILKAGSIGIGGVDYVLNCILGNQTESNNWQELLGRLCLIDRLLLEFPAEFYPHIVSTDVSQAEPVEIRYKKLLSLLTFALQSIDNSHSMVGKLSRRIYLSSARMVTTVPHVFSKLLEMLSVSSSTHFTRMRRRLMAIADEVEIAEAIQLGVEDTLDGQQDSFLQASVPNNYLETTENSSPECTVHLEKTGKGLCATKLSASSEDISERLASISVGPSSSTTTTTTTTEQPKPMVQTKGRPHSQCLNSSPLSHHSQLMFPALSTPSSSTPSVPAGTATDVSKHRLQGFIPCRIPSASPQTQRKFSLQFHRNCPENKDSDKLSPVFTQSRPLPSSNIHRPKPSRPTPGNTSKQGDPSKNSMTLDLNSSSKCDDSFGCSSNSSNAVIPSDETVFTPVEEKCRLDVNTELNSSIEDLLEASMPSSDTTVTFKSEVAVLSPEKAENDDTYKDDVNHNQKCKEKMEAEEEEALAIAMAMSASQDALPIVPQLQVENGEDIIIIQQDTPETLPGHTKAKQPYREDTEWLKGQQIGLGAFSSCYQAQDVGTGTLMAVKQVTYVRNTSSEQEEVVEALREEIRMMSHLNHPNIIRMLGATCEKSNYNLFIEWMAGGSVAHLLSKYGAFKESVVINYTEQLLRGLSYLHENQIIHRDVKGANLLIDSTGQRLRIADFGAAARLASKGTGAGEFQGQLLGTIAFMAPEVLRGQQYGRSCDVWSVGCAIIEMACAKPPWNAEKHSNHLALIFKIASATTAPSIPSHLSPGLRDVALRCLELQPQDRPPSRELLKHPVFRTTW"}, "SLK": {"molecular_target": "SLK (Homo sapiens, UniProt Q9H2G2)"}, "CAMKK2": {"molecular_target": "CAMKK2 (Homo sapiens, UniProt Q96RR4)", "sequence (Q96RR4 whole entry)": "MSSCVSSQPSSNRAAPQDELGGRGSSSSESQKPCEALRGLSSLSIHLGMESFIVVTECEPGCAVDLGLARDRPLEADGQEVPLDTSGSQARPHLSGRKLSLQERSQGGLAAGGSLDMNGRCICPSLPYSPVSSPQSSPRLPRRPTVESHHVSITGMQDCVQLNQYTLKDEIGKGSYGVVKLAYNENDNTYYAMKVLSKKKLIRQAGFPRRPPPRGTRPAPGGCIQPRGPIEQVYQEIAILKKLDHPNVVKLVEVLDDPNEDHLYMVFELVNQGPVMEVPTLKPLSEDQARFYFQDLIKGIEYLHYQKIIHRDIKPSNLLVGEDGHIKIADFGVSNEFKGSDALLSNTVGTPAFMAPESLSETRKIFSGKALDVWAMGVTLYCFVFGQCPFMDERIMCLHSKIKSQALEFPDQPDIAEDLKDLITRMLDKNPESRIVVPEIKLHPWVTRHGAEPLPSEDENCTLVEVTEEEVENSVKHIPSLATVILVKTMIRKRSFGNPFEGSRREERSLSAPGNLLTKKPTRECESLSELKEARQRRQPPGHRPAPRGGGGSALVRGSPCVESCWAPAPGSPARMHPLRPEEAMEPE"}, "CHEK2": {"molecular_target": "CHEK2 (Homo sapiens, UniProt O96017)"}, "MAPK3": {"molecular_target": "MAPK3 (Homo sapiens, UniProt P27361)"}, "NEK7": {"molecular_target": "NEK7 (Homo sapiens, UniProt Q8TDX7)"}, "KDR": {"molecular_target": "KDR (Homo sapiens, UniProt P35968)"}, "CLK1": {"molecular_target": "CLK1 (Homo sapiens, UniProt P49759)"}, "EPHB4": {"molecular_target": "EPHB4 (Homo sapiens, UniProt P54760)"}, "PRKX": {"molecular_target": "PRKX (Homo sapiens, UniProt P51817)"}}}
{"smiles": "COc1ccccc1-c1n[nH]c2nc(N[C@H]3CC[C@H](NS(=O)(=O)CCC(F)(F)F)CC3)nc(OC)c12", "note": "[compound 31, 3,3,3-Trifluoro-N-(trans-4-((4-methoxy-3-(2-methoxyphenyl)-1H-pyrazolo[3,4-d]pyrimidin-6-yl)amino)cyclohexyl)propane-1-sulfonamide]", "values": [{"measurement": "IC50", "setting": "JAK3", "result": "≥ 20", "unit": "µM"}, {"measurement": "IC50", "setting": "ADK", "result": "≥ 20", "unit": "µM"}, {"measurement": "IC50", "setting": "CDC42BPB", "result": "≥ 20", "unit": "µM"}, {"measurement": "IC50", "setting": "LATS1", "result": "≥ 20", "unit": "µM"}, {"measurement": "IC50", "setting": "PTK2B", "result": "≥ 20", "unit": "µM"}, {"measurement": "IC50", "setting": "PHKA2", "result": "≥ 20", "unit": "µM"}, {"measurement": "IC50", "setting": "ERN1", "result": "≥ 20", "unit": "µM"}, {"measurement": "IC50", "setting": "PLK4", "result": "≥ 20", "unit": "µM"}, {"measurement": "IC50", "setting": "LCK", "result": "≥ 20", "unit": "µM"}, {"measurement": "IC50", "setting": "TYRO3", "result": "≥ 20", "unit": "µM"}, {"measurement": "IC50", "setting": "OXSR1", "result": "≥ 20", "unit": "µM"}, {"measurement": "IC50", "setting": "MAP3K1", "result": "≥ 20", "unit": "µM"}, {"measurement": "IC50", "setting": "SLK", "result": "≥ 20", "unit": "µM"}, {"measurement": "IC50", "setting": "CAMKK2", "result": 8.6, "unit": "µM"}, {"measurement": "IC50", "setting": "CHEK2", "result": "≥ 20", "unit": "µM"}, {"measurement": "IC50", "setting": "MAPK3", "result": "≥ 20", "unit": "µM"}, {"measurement": "IC50", "setting": "NEK7", "result": "≥ 20", "unit": "µM"}, {"measurement": "IC50", "setting": "KDR", "result": "≥ 20", "unit": "µM"}, {"measurement": "IC50", "setting": "CLK1", "result": "≥ 20", "unit": "µM"}, {"measurement": "IC50", "setting": "EPHB4", "result": "≥ 20", "unit": "µM"}, {"measurement": "IC50", "setting": "PRKX", "result": "≥ 20", "unit": "µM"}]}
